In US4575498A, “Method for restoring depleted purine nucleotide pools” (priority 1983, dated 1986):

Assays:
serum urate = assay: Serum urate concentrations; assay type: in vivo, mongrel dogs; conditions: for Serum urate concentration: P < 0.05 vs control
Method: (§1) Animal Preparation--Seven adult mongrel dogs were anesthetized intramuscularly with 40 mg of morphine sulfate and intravenously with 80 mg/kg of chloralose, an endotraceal tube was inserted, and ventilation was maintained with an Emerson volume-cycled respirator and 100% oxygen. The heart was exposed through a left lateral thoracotomy, polyvinyl chloride catheters (3-mm outer diameter) were inserted into the left atrium and into the aorta through the right femoral artery, and a Statham TTQ electromagnetic flow meter probe was positioned around the ascending aorta. The aortic pressure catheter was connected to a Statham P23Db transducer (Statham Instruments, Inc., Oxnard, CA) with the zero reference at the midchest level. Aortic flow was measured with a Howell Instruments Series 1000 Flowmeter, and stroke volume and cardiac output were calculated from the aortic flow measurement. All hemodynamic data were monitored continuously throughout the course of the study. In 5 of the animals, the skin of the left dorsal hindlimb was opened and the gastrocnemius muscle was identified for subsequent tissue sampling.
(§2) After hemodynamic parameters had stabilized, regional myocardial blood flow was measured by injecting radioactively labled microspheres. Tissue samples were obtained from the left ventricle and from the left gastrocnemius muscle. A venous blood sample was also obtained. AICAriboside (100 mM) was then infused into the left atrium at 1.9 ml/min. Repeat tissue samples were taken from the left ventricle at 15, 30 and 42 min. of infusion, and tissue samples were taken from the gastrocnemius muscle at 30 min. of infusion. Venous and arterial blood samples were also obtained at 42 min. of infusion, and regional myocardial blood flow was measured at 10 and 39 min. of AICAriboside infusion. AICAriboside infusion was terminated after 42 min., and tissue samples were taken from the left ventricle at 10, 20, 30 and 60 min. postinfusion and from the left gastrocnemius muscle at 2, 22 and 60 min. postinfusion. Venous blood samples were obtained at 10, 30 and 60 min. after AICAriboside infusion. In 4 of the 7 dogs, 400 mM formate was infused intravenously at the rate of 1.9 ml/min. for 42 min. prior to and during AICAriboside infusion. These same animals also received 6 mg of folinic acid as an intravenous bolus 30 min. prior to and 15 min. after initiating AICAriboside infusion.
(§3) Other Methods--Serum urate was determined by the enzymatic spectrophotometric method as previously described in Liddle et al., J. Lab. Clin. Med., 54, 909-913 (1959).

[1] = Serum urate concentrations; assay type: in vivo, mongrel dogs; conditions: dog, in vivo; of 8 mmol infused, during 42 min; minimal estimate from serum urate increase and total body water; read-out: infused AICAriboside metabolized to purine nucleotides and subsequently catabolized
Method: as §1, §2, §3

[2] = test system: cardiac and skeletal muscle; assay: Creatine phosphate content of cardiac and skeletal muscle; assay type: in vivo, mongrel dogs; conditions: throughout the study (6.8±0.4 and 10.6±0.5 μmol/g at beginning)
Method: as §1, with “In 5 of the animals, the skin of the left dorsal hindlimb was opened and the gastrocnemius muscle was identified for subsequent tissue sampling.” left out
After hemodynamic parameters had stabilized, regional myocardial blood flow was measured by injecting radioactively labled microspheres. […] Venous and arterial blood samples were also obtained at 42 min. of infusion, and regional myocardial blood flow was measured at 10 and 39 min. of AICAriboside infusion. […]

cardiac muscle = assay: AICAriboside infusion in normal myocardium: nucleotide, nucleoside and base content of cardiac muscle biopsies; conditions: for TAN: total adenine nucleotide
[3] = cardiac muscle, 10 min postinfusion
[4] = cardiac muscle, 10 min postinfusion, P < 0.05 vs control
[5] = cardiac muscle, 15 min of AICAriboside infusion
[6] = cardiac muscle, 20 min postinfusion
[7] = cardiac muscle, 20 min postinfusion, P < 0.05 vs control
[8] = cardiac muscle, 30 min of AICAriboside infusion
[9] = cardiac muscle, 30 min of AICAriboside infusion, P < 0.05 vs control
[10] = cardiac muscle, 30 min postinfusion
[11] = cardiac muscle, 30 min postinfusion, P < 0.05 vs control
[12] = cardiac muscle, 42 min of AICAriboside infusion
[13] = cardiac muscle, 60 min postinfusion

NC(=O)c1ncn([C@@H]2O[C@H](CO)[C@@H](O)[C@H]2O)c1N [AICAriboside, 5-amino-4-imidazolecarboxamide riboside]
Serum urate concentration (serum urate; 10 min postinfusion): 3.5 ± 0.5 mg/dL | Serum urate concentration (serum urate; 30 min postinfusion): 2.9 ± 0.2 mg/dL | Serum urate concentration (serum urate; 42 min of AICAriboside infusion): 3.5 ± 0.4 mg/dL | Serum urate concentration (serum urate; 60 min postinfusion): 2.40 ± 0.4 mg/dL | increase in mean serum urate concentration (serum urate; following infusion of 8 mmol of AICAriboside): 3.7 fold | metabolised at 0.7 h [1]: ≥ 25% | creatine phosphate content [2]: did not vary significantly | myocardial content of CTP (cardiac muscle; AICAriboside infusion): no detectable change | mean content of AICAriboside in cardiac muscle greater than that of skeletal muscle (cardiac muscle; after 30 min of infusion): 66% | adenylosuccinate in biopsies (cardiac muscle; before, during or after infusion, lower limit of detection 3 nmol/g, wet weight): not detectable | adenylate energy charge (cardiac muscle; cardiac muscle, 0.929±0.003 before infusion, during course of experiment): did not vary | ADP (cardiac muscle; [3]): 0.83 ± 0.05 μmol/g, wet weight | AMP (cardiac muscle; [3]): 0.054 ± 0.007 μmol/g, wet weight | Hyp (hypoxanthine) (cardiac muscle; [3]): 0.016 ± 0.008 μmol/g, wet weight | Ino (inosine) (cardiac muscle; [3]): 0.009 ± 0.001 μmol/g, wet weight | ATP (cardiac muscle; [4]): 6.07 ± 0.17 μmol/g, wet weight | IMP (cardiac muscle; [4]): 0.018 ± 0.003 μmol/g, wet weight | ADP (cardiac muscle; [5]): 0.77 ± 0.06 μmol/g, wet weight | AMP (cardiac muscle; [5]): 0.056 ± 0.008 μmol/g, wet weight | ATP (cardiac muscle; [5]): 5.77 ± 0.24 μmol/g, wet weight | IMP (cardiac muscle; [5]): 0.020 ± 0.007 μmol/g, wet weight | ADP (cardiac muscle; [6]): 0.81 ± 0.04 μmol/g, wet weight | AMP (cardiac muscle; [6]): 0.054 ± 0.005 μmol/g, wet weight | Hyp (hypoxanthine) (cardiac muscle; [6]): 0.007 ± 0.002 μmol/g, wet weight | IMP (cardiac muscle; [6]): 0.017 ± 0.005 μmol/g, wet weight | Ino (inosine) (cardiac muscle; [6]): 0.007 ± 0.001 μmol/g, wet weight | ATP (cardiac muscle; [7]): 5.83 ± 0.14 μmol/g, wet weight | ADP (cardiac muscle; [8]): 0.82 ± 0.03 μmol/g, wet weight | AMP (cardiac muscle; [8]): 0.050 ± 0.005 μmol/g, wet weight | Hyp (hypoxanthine) (cardiac muscle; [8]): 0.013 ± 0.006 μmol/g, wet weight | IMP (cardiac muscle; [8]): 0.030 ± 0.021 μmol/g, wet weight | Ino (inosine) (cardiac muscle; [8]): 0.012 ± 0.001 μmol/g, wet weight | ATP (cardiac muscle; [9]): 5.89 ± 0.16 μmol/g, wet weight | ADP (cardiac muscle; [10]): 0.84 ± 0.03 μmol/g, wet weight | AMP (cardiac muscle; [10]): 0.055 ± 0.006 μmol/g, wet weight | Hyp (hypoxanthine) (cardiac muscle; [10]): 0.003 ± 0.002 μmol/g, wet weight | Ino (inosine) (cardiac muscle; [10]): 0.009 ± 0.002 μmol/g, wet weight | ATP (cardiac muscle; [11]): 5.98 ± 0.07 μmol/g, wet weight | IMP (cardiac muscle; [11]): 0.016 ± 0.003 μmol/g, wet weight | ADP (cardiac muscle; [12]): 0.77 ± 0.03 μmol/g, wet weight | AMP (cardiac muscle; [12]): 0.053 ± 0.007 μmol/g, wet weight | ATP (cardiac muscle; [12]): 5.77 ± 0.28 μmol/g, wet weight | IMP (cardiac muscle; cardiac muscle, 42 min of AICAriboside infusion, P < 0.05 vs control): 0.019 ± 0.006 μmol/g, wet weight | ADP (cardiac muscle; [13]): 0.82 ± 0.04 μmol/g, wet weight | AMP (cardiac muscle; [13]): 0.052 ± 0.006 μmol/g, wet weight | ATP (cardiac muscle; [13]): 5.72 ± 0.27 μmol/g, wet weight | Hyp (hypoxanthine) (cardiac muscle; [13]): 0.001 ± 0.001 μmol/g, wet weight | Ino (inosine) (cardiac muscle; [13]): 0.006 ± 0.001 μmol/g, wet weight | IMP (cardiac muscle; cardiac muscle, 60 min postinfusion, P < 0.05 vs control): 0.017 ± 0.003 μmol/g, wet weight | increase in IMP content (cardiac muscle; cardiac muscle, AICAriboside infusion): 3-4 fold | maximum UTP content (cardiac muscle; cardiac muscle, from basal 0.126±0.009, p<0.005): 0.157±0.006 μmol/g, wet weight | guanine nucleotide content (GDP+GTP) (cardiac muscle; cardiac muscle, significant at one time point only): tended to increase | dogs with guanine nucleotide pool remaining elevated (cardiac muscle; cardiac muscle, up to 60 min after infusion discontinued): 6 of 7 | adenosine content (cardiac muscle; cardiac or skeletal muscle, during infusion): did not increase | AMP and ADP content change (cardiac muscle; cardiac tissue, any time point): did not change significantly | increased ATP content (cardiac muscle; cardiac tissue, from 5.55±0.17, p<0.02): 6.07±0.17 μmol/g, wet weight | accumulation of AICAriboside-TP (cardiac muscle; cardiac vs skeletal muscle, quantitated with extinction coefficient of AICAR): greater in cardiac muscle | maximum TAN (total adenine nucleotide) (cardiac muscle; heart muscle, from basal 6.40±0.20, p<0.005): 6.96±0.20 μmol/g, wet weight | content of NAD^+ (cardiac muscle; heart, throughout infusion, did not vary): 0.64 ± 0.01 µmol/g | UTP pool increase (cardiac muscle; myocardial cells, following AICAriboside infusion): 25% | content of inosine and hypoxanthine (cardiac muscle; myocardial, throughout the study): only minimally increased | TAN (cardiac muscle; [4]): 6.96 ± 0.20 μmol/g, wet weight | TAN (cardiac muscle; [5]): 6.59 ± 0.29 μmol/g, wet weight | TAN (cardiac muscle; [7]): 6.70 ± 0.10 μmol/g, wet weight | TAN (cardiac muscle; [9]): 6.77 ± 0.16 μmol/g, wet weight | TAN (cardiac muscle; [11]): 6.87 ± 0.10 μmol/g, wet weight | TAN (cardiac muscle; [12]): 6.59 ± 0.27 μmol/g, wet weight | TAN (cardiac muscle; [13]): 6.59 ± 0.24 μmol/g, wet weight
